What follows are compounds tested against T1, CCR2 (Homo sapiens, UniProt P41597) (assay: Binding assay: inhibition of 125I-MCP-1 binding to THP-1 cells). Conditions: not given.
T1 sequence (P41597 1-360 isoform P41597-2): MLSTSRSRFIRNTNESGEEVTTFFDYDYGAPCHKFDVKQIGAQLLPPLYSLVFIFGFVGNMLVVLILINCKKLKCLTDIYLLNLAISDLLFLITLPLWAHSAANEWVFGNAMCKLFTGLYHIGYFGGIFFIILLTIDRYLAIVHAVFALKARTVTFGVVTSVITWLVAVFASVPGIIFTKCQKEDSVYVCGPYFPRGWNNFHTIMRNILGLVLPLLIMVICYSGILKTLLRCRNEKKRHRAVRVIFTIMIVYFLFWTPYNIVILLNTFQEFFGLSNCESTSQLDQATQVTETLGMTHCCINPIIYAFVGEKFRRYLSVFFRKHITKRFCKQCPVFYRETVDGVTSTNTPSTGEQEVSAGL
Parameters: CCR2 is also expressed in the human monocytic cell line THP-1; endogenous in cells; host or cells: THP-1 (human monocytic cell line), whole cells
Protocol: Antagonism of the CCR2 receptor is determined by a binding assay using the human monocytic cell line THP-1. Cells are suspended in assay buffer (RPMI+1% BSA+25 mM HEPES) at 3×10^6 cells/ml and an aliquot (180 μl) added to a 0.5 ml siliconized Eppendorf tube. […] After incubation for 1 hr at room temperature, the cell suspension is centrifuged through oil and the cell pellets counted to quantitate cell-bound ligand. Nonspecific (NS) binding of radioligand is determined by the addition of 100 nM cold MCP-1. Control binding is determined by the addition of buffer without compound.

Structure (SMILES)	IC50 [µM]
CCCC(CCC)C1C(C(C)=O)=C(O)C(=O)N1c1ccc(C)cc1 (racemic) [Compound 39, 4-acetyl-3-hydroxy-1-(4-methylphenyl)-5-(1-propylbutyl)-1,5-dihydro-2H-pyrrol-2-one]	≤ 5

Same assay, conditions: THP-1 cells, 0.1 nM 125I-MCP-1, 1 hr at room temperature; read-out: Inhibition of 125I-MCP-1 binding to THP-1 cells, IC50

IC50 [µM]	Structure (SMILES)
≤ 5	CC(=O)C1=C(O)C(=O)N(c2ccc(C)cc2F)C1C1CCCCC1 (racemic) [Compound 54, 4-acetyl-5-cyclohexyl-1-(2-fluoro-4-methylphenyl)-3-hydroxy-1,5-dihydro-2H-pyrrol-2-one]
≤ 5	CC(=O)C1=C(O)C(=O)N(c2ccc(Cl)c(C(F)(F)F)c2)C1C1CCCCC1 (racemic) [Compound 55, 4-acetyl-1-[4-chloro-3-(trifluoromethyl)phenyl]-5-cyclohexyl-3-hydroxy-1,5-dihydro-2H-pyrrol-2-one]
≤ 5	CC(=O)C1=C(O)C(=O)N(c2ccc(C)cc2)C1C1CCCC1 (racemic) [Compound 56, 4-acetyl-5-cyclopentyl-3-hydroxy-1-(4-methylphenyl)-1,5-dihydro-2H-pyrrol-2-one]
≤ 5	CC(=O)C1=C(O)C(=O)N(c2ccc(C)cc2)C1C12CC3CC(CC(C3)C1)C2 (racemic) [Compound 58, 4-acetyl-5-(1-adamantyl)-3-hydroxy-1-(4-methylphenyl)-1,5-dihydro-2H-pyrrol-2-one]
≤ 5	CC(=O)C1=C(O)C(=O)N(c2ccc(C)c(Cl)c2)C1C1CCCCC1 (racemic) [Compound 59, 4-acetyl-1-(3-chloro-4-methylphenyl)-5-cyclohexyl-3-hydroxy-1,5-dihydro-2H-pyrrol-2-one]
≤ 5	CC(=O)C1=C(N)C(=O)N(c2ccc(C)cc2)C1C1CCCCC1 (racemic) [Compound 61, 4-acetyl-3-amino-5-cyclohexyl-1-(4-methylphenyl)-1,5-dihydro-2H-pyrrol-2-one]
≤ 5	CC(=O)C1=C(O)C(=O)N(c2ccc(F)cc2F)C1C1CCCCC1 (racemic) [Compound 62, 4-acetyl-5-cyclohexyl-1-(2,4-difluorophenyl)-3-hydroxy-1,5-dihydro-2H-pyrrol-2-one]
≤ 5	CC(=O)C1=C(O)C(=O)N(c2ccc3c(c2)CCC3)C1C1CCCCC1 (racemic) [Compound 63, 4-acetyl-5-cyclohexyl-1-(2,3-dihydro-1H-inden-5-yl)-3-hydroxy-1,5-dihydro-2H-pyrrol-2-one]
≤ 5	CC(=O)C1=C(O)C(=O)N(c2ccc(F)c(C)c2)C1C1CCCCC1 (racemic) [Compound 64, 4-acetyl-5-cyclohexyl-1-(4-fluoro-3-methylphenyl)-3-hydroxy-1,5-dihydro-2H-pyrrol-2-one]
≤ 5	CC(=O)C1=C(O)C(=O)N(c2ccc(C)c(C)c2)C1C1CCCCC1 (racemic) [Compound 65, 4-acetyl-5-cyclohexyl-1-(3,4-dimethylphenyl)-3-hydroxy-1,5-dihydro-2H-pyrrol-2-one]
≤ 5	CC(=O)C1=C(O)C(=O)N(c2ccc(Cl)c([N+](=O)[O-])c2)C1C1CCCCC1 (racemic) [Compound 66, 4-acetyl-1-(4-chloro-3-nitrophenyl)-5-cyclohexyl-3-hydroxy-1,5-dihydro-2H-pyrrol-2-one]
≤ 5	CC(=O)C1=C(O)C(=O)N(c2ccc(C)cc2)C1C1CCCCCC1 (racemic) [Compound 68, 4-acetyl-5-cycloheptyl-3-hydroxy-1-(4-methylphenyl)-1,5-dihydro-2H-pyrrol-2-one]
≤ 5	CCc1cc(N2C(=O)C(O)=C(C(C)=O)C2C2CCCCC2)ccc1Cl (racemic) [Compound 70, 4-acetyl-1-(4-chloro-3-ethylphenyl)-5-cyclohexyl-3-hydroxy-1,5-dihydro-2H-pyrrol-2-one]
≤ 5	CC(=O)C1=C(O)C(=O)N(c2ccc(Cl)c(N)c2)C1C1CCCCC1 (racemic) [Compound 71, 4-acetyl-1-(3-amino-4-chlorophenyl)-5-cyclohexyl-3 hydroxy-1,5-dihydro-2H-pyrrol-2-one]
≤ 5	CC(=O)C1=C(O)C(=O)N(c2ccc(C)c(Br)c2)C1C1CCCCC1 (racemic) [Compound 73, 4-acetyl-1-(3-bromo-4-methylphenyl)-5-cyclohexyl-3-hydroxy-1,5-dihydro-2H-pyrrol-2-one]
≤ 5	CCCC1C(C(C)=O)=C(O)C(=O)N1c1ccc(C)c(C)c1 (racemic) [Compound 74, 4-acetyl-1-(3,4-dimethylphenyl)-3-hydroxy-5-propyl-1,5-dihydro-2H-pyrrol-2-one]

The next lines start with the compound.

Structure (SMILES)	IC50 [µM]
CC(=O)C1=C(O)C(=O)N(Cc2ccccc2)C1C1CCCCC1 (racemic) [Compound 7, 4-acetyl-1-benzyl-5-cyclohexyl-3-hydroxy-1,5-dihydro-2H-pyrrol-2-one]	≤ 5
CC(=O)C1=C(O)C(=O)N(Cc2ccccc2)C1c1ccco1 (racemic) [Compound 8, 4-acetyl-1-benzyl-5-(2-furyl)-3-hydroxy-1,5-dihydro-2H-pyrrol-2-one]	≤ 5
CC(=O)C1=C(O)C(=O)N(c2ccc(Br)cc2)C1c1ccc(Br)cc1 (racemic) [Compound 9, 4-acetyl-1,5-bis(4-bromophenyl)-3-hydroxy-1,5-dihydro-2H-pyrrol-2-one]	≤ 5
CCC(CC)C1C(C(C)=O)=C(O)C(=O)N1c1ccc(C)cc1 (racemic) [Compound 13, 4-acetyl-5-(1-ethylpropyl)-3-hydroxy-1-(4-methylphenyl)-1,5-dihydro-2H-pyrrol-2-one]	≤ 5
COc1ccc(N2C(=O)C(O)=C(C(C)=O)C2C2CCCCC2)cc1 (racemic) [Compound 14, 4-acetyl-5-cyclohexyl-3-hydroxy-1-(4-methoxyphenyl)-1,5-dihydro-2H-pyrrol-2-one]	≤ 5
CC(=O)C1=C(O)C(=O)N(c2cccc(C)c2)C1C1CCCCC1 (racemic) [Compound 16, 4-acetyl-5-cyclohexyl-3-hydroxy-1-(3-methylphenyl)-1,5-dihydro-2H-pyrrol-2-one]	≤ 5
CC(=O)C1=C(O)C(=O)N(c2ccc(Br)cc2)C1C1CCCCC1 (racemic) [Compound 17, 4-acetyl-1-(4-bromophenyl)-5-cyclohexyl-3-hydroxy-1,5-dihydro-2H-pyrrol-2-one]	≤ 5
CC(=O)C1=C(O)C(=O)N(c2ccc(C)cc2)C1c1ccc(Br)cc1 (racemic) [Compound 20, 4-acetyl-5-(4-bromophenyl)-3-hydroxy-1-(4-methylphenyl)-1,5-dihydro-2H-pyrrol-2-one]	≤ 5
CC(=O)C1=C(O)C(=O)N(c2ccccc2)C1C1CCCCC1 (racemic) [Compound 23, 4-acetyl-5-cyclohexyl-3-hydroxy-1-phenyl-1,5-dihydro-2H-pyrrol-2-one]	≤ 5
CC(=O)C1=C(O)C(=O)N(c2ccc(F)cc2)C1C1CCCCC1 (racemic) [Compound 25, 4-acetyl-5-cyclohexyl-1-(4-fluorophenyl)-3-hydroxy-1,5-dihydro-2H-pyrrol-2-one]	≤ 5
CC(=O)C1=C(O)C(=O)N(c2ccc(C)cc2)C1CC(C)C (racemic) [Compound 40, 4-acetyl-3-hydroxy-5-isobutyl-1-(4-methylphenyl)-1,5-dihydro-2H-pyrrol-2-one]	≤ 5
Cc1ccc(N2C(=O)C(O)=C(C(=O)C(C)(C)C)C2C2CCCCC2)cc1 (racemic) [Compound 41, 5-cyclohexyl-4-(2,2-dimethylpropanoyl)-3-hydroxy-1-(4-methylphenyl)-1,5-dihydro-2H-pyrrol-2-one]	≤ 5
CC(=O)C1=C(O)C(=O)N(c2cccc(Cl)c2)C1C1CCCCC1 (racemic) [Compound 43, 4-acetyl-1-(3-chlorophenyl)-5-cyclohexyl-3-hydroxy-1,5-dihydro-2H-pyrrol-2-one]	≤ 5
CC(=O)C1=C(O)C(=O)N(c2cccc(Br)c2)C1C1CCCCC1 (racemic) [Compound 44, 4-acetyl-1-(3-bromophenyl)-5-cyclohexyl-3-hydroxy-1,5-dihydro-2H-pyrrol-2-one]	≤ 5
CC(=O)C1=C(O)C(=O)N(c2ccc(C)c(F)c2)C1C1CCCCC1 (racemic) [Compound 47, 4-acetyl-5-cyclohexyl-1-(3-fluoro-4-methylphenyl)-3-hydroxy-1,5-dihydro-2H-pyrrol-2-one]	≤ 5
CC(=O)C1=C(O)C(=O)N(c2ccc(Cl)c(Cl)c2)C1C1CCCCC1 (racemic) [Compound 48, 4-acetyl-5-cyclohexyl-1-(3,4-dichlorophenyl)-3-hydroxy-1,5-dihydro-2H-pyrrol-2-one]	≤ 5
CC(=O)C1=C(O)C(=O)N(c2ccc(C(F)(F)F)cc2)C1C1CCCCC1 (racemic) [Compound 49, 4-acetyl-5-cyclohexyl-3-hydroxy-1-[4-(trifluoromethyl)phenyl]-1,5-dihydro-2H-pyrrol-2-one]	≤ 5
CC(=O)C1=C(O)C(=O)N(c2ccc(C(C)C)cc2)C1C1CCCCC1 (racemic) [Compound 52, 4-acetyl-5-cyclohexyl-3-hydroxy-1-(4-isopropylphenyl)-1,5-dihydro-2H-pyrrol-2-one]	≤ 5

Source: patent publication US6727275B2, “Pyrrolidinone derivatives” (UCB, S.A./N.V., priority 2001, dated 2004)
